Data from paper PMC8620390, “New Multi-Targeted Antiproliferative Agents: Design and Synthesis of IC261-Based Oxindoles as Potential Tubulin, CK1 and EGFR Inhibitors” (Pharmaceuticals, 2021).

Tests used:
COLO-205 = test: Two-dose antiproliferative screening, SRB assay, COLO-205; format: cell-based, human; details: triplicates; for inhibition at 1 µM / inhibition at 10 µM: Homo sapiens, COLO 205, 72 h; for inhibition at 1 µM: read-out: Growth Inhibition (%) COLO-205 1 μM Average; for inhibition at 10 µM: read-out: Growth Inhibition (%) COLO-205 10 μM Average
Description: (§1) MCF-7(breast adenocarcinoma), PC-3 (prostate cancer) and COLO-205 (colorectal cancer) were obtained from Nawah Scientific inc., (Mokatam, Cairo, Egypt). Cells were maintained in Dulbecco’s Modified Eagle’s media (DMEM media) supplemented with […] of streptomycin, 100 units/mL of penicillin and 10% of heat-inactivated fetal bovine serum in humidified, 5% (v/v) CO2 atmosphere at 37 °C.
(§2) Cell viability was assessed by the sulforhodamine B (SRB) assay. Aliquots of cell suspension (5 × 10^3 cells, 100 μL) were transferred into 96 well plates and incubated in complete media for 24 h. Cells were treated with another aliquot media (100 μL) containing compounds 3a–f, 4a–f, 6a–f, 7a–f, 9a–b at concentrations of 1 and 10 μM). After 72 h of drug exposure, cells were fixed by replacing media with trichloroacetic acid (TCA, 10%, 150 μL) and incubated at 4 °C for 1 h. The TCA solution was removed, and the cells were washed five times with distilled water. Aliquots of SRB solution (0.4%w/v, 70 μL) were added and incubated in a dark place at room temperature for 10 min. Plates were washed three times with 1% acetic acid and allowed to air dry overnight. Then, a solution of TRIS base and TRIS HCl (TRIS buffer, 10 mM, 150 μL) was added to dissolve protein bound SRB stain. The absorbance was measured at 540 nm using BMGLABTECH®–FLUOstar omega micro-plate reader (Ortenberg, Germany).

PC-3 = test: Two-dose antiproliferative screening, SRB assay, PC-3; format: cell-based; details: triplicates; for inhibition at 1 µM / inhibition at 10 µM: Homo sapiens, PC-3, 72 h; for inhibition at 1 µM: read-out: Growth Inhibition (%) PC-3 1 μM Average; for inhibition at 10 µM: read-out: Growth Inhibition (%) PC-3 10 μM Average; for Growth Inhibition (%) PC-3 10 μM Average: 72 h
Description: as §1, §2

MCF-7 = test: Two-dose antiproliferative screening, SRB assay, MCF-7; format: cell-based; details: Homo sapiens, MCF7, 72 h, triplicates; for inhibition at 1 µM: read-out: Growth Inhibition (%) MCF-7 1 μM Average; for inhibition at 10 µM: read-out: Growth Inhibition (%) MCF-7 10 μM Average
Description: as §1, §2

SMILES	inhibition at 1 µM (COLO-205)	inhibition at 10 µM (COLO-205; 10 μM)	inhibition at 1 µM (PC-3)	inhibition at 10 µM (PC-3)	inhibition at 1 µM (MCF-7)	inhibition at 10 µM (MCF-7)	Growth Inhibition (%) PC-3 10 μM Average (PC-3)	Growth Inhibition (%) COLO-205 10 μM Average (COLO-205; 10 μM, 72 h)
COc1cc(/C=C2/C(=O)Nc3ccccc32)cc(OC)c1OC [Compound 3a, (E)-3-(3,4,5-trimethoxybenzylidene)indolin-2-one]	1.18%	4.71%	1.92%	20.4%	1.17%	3.44%	–	–
COc1cc(/C=C2/C(=O)Nc3cc(Cl)ccc32)cc(OC)c1OC [Compound 3b, (E)-6-chloro-3-(3,4,5-trimethoxybenzylidene)indolin-2-one]	5.7%	32.6%	7.69%	39%	1.14%	41.2%	–	–
COc1cc(/C=C2/C(=O)Nc3ccc(Cl)cc32)cc(OC)c1OC [Compound 3c, (E)-5-chloro-3-(3,4,5-trimethoxybenzylidene)indolin-2-one]	2.86%	6.41%	1.42%	14.3%	1.06%	8.56%	–	–
COc1cc(/C=C2/C(=O)Nc3ccc(F)cc32)cc(OC)c1OC [Compound 3d, (E)-5-fluoro-3-(3,4,5-trimethoxybenzylidene)indolin-2-one]	7.01%	11.8%	2.02%	1.91%	0.98%	3.6%	–	–
COc1ccc2c(c1)/C(=C\c1cc(OC)c(OC)c(OC)c1)C(=O)N2 [Compound 3e, (E)-5-methoxy-3-(3,4,5-trimethoxybenzylidene)indolin-2-one]	2.34%	18.6%	32.9%	52 to 72%	21%	65.3%	61.38%	–
COc1cc(/C=C2/C(=O)Nc3ncccc32)cc(OC)c1OC [Compound 3f, (E)-3-(3,4,5-trimethoxybenzylidene)-1,3-dihydro-2H-pyrrolo[2,3-b] pyridin-2-one]	1.52%	9.13%	1.29%	3.57%	0.36%	4.53%	–	–
COc1cc(OC)c(/C=C2/C(=O)Nc3ncccc32)c(OC)c1 [Compound 4f, (E)-3-(2,4,6-trimethoxybenzylidene)-1,3-dihydro-2H-pyrrolo[2,3-b] pyridin-2-one]	7.64%	63.8%	23%	69.1%	11.5%	65.8%	–	–
COc1cc(/C=C2/C(=O)N(Cc3ccccc3)c3ccccc32)cc(OC)c1OC [Compound 6a, (E)-1-Benzyl-3-(3,4,5-trimethoxybenzylidene)indolin-2-one]	2.46%	4.97%	4.3%	5.03%	1.74%	48.5%	–	–
COc1cc(/C=C2/C(=O)N(Cc3ccc(Cl)cc3)c3ccccc32)cc(OC)c1OC [Compound 6b, (E)-1-(4-Chlorobenzyl)-3-(3,4,5-trimethoxybenzylidene)indolin-2-one]	3.9%	45.8%	1.04%	28.9%	1.13%	32.2%	–	–
COc1cc(/C=C2/C(=O)N(Cc3ccc(F)cc3)c3ccccc32)cc(OC)c1OC [Compound 6c, (E)-1-(4-Fluorobenzyl)-3-(3,4,5-trimethoxybenzylidene)indolin-2-one]	4.66%	13.6%	0.69%	8.22%	5.68%	25%	–	–
COc1cc(/C=C2/C(=O)N(Cc3ccccc3)c3cc(Cl)ccc32)cc(OC)c1OC [Compound 6d, (E)-1-benzyl-6-chloro-3-(3,4,5-trimethoxybenzylidene)indolin-2-one]	2.38%	8.68%	4.24%	7.34%	0.68%	48.4%	–	–
COc1cc(OC)c(/C=C2/C(=O)N(Cc3ccccc3)c3ccccc32)c(OC)c1 [Compound 7a, (E)-1-benzyl-3-(2,4,6-trimethoxybenzylidene)indolin-2-one]	11.9%	20%	0.65%	8.59%	0.6%	15.3%	–	–
COc1cc(OC)c(/C=C2/C(=O)N(Cc3ccc(Cl)cc3)c3ccccc32)c(OC)c1 [Compound 7b, (E)-1-(4-chlorobenzyl)-3-(2,4,6-trimethoxybenzylidene)indolin-2-one]	3%	3.33%	1.05%	3.15%	3.81%	5.48%	–	–
COc1cc(OC)c(/C=C2/C(=O)N(Cc3ccc(F)cc3)c3ccccc32)c(OC)c1 [Compound 7c, (E)-1-(4-fluorobenzyl)-3-(2,4,6-trimethoxybenzylidene)indolin-2-one]	4.66%	18.3%	0.89%	13.8%	4.08%	25.9%	–	–
COc1cc(OC)c(/C=C2/C(=O)N(Cc3ccccc3)c3cc(Cl)ccc32)c(OC)c1 [Compound 7d, (E)-1-benzyl-6-chloro-3-(2,4,6-trimethoxybenzylidene)indolin-2-one]	2.38%	15.6%	1.47%	19.9%	0.49%	40.5%	–	–
COc1cc(OC)c(/C=C2/C(=O)N(Cc3ccc(Cl)cc3)c3cc(Cl)ccc32)c(OC)c1 [Compound 7e, (E)-6-chloro-1-(4-chlorobenzyl)-3-(2,4,6-trimethoxybenzylidene) indolin-2-one]	3.82%	22.1%	1.77%	52 to 72%	1.59%	46.2%	51.68%	–
COc1cc(OC)c(/C=C2/C(=O)N(Cc3ccc(F)cc3)c3cc(Cl)ccc32)c(OC)c1 [Compound 7f, (E)-6-chloro-1-(4-fluorobenzyl)-3-(2,4,6-trimethoxybenzylidene) indolin-2-one]	3.33%	–	0.75%	7.08%	10.3%	16%	–	3.97%
